{"source": "patent US10982284B2", "about": "“Compositions and methods APC, CREB, and BAD pathways to assess and affect cancer” (H. Lee Moffitt Cancer Center and Research Institute, Inc., priority 2011, dated 2021)", "assay_in_all_cases": "CellTiter-Blue cell viability assay", "assay_type_in_all_cases": "cell-based, human", "key": {"A2008": {"test_system": "A2008", "details": "A2008 ovarian cancer cell line; 72 hours; 50% reduction in growth/viability", "source_text": "(§1) Ovarian cancer cell lines were obtained from the American Type Culture Collection (Manassas, Va.) (CAOV3, OV90, OVCAR3, SKOV3, TO[…]); from the European Collection of Cell Cultures, Salisbury, UK (A2780CP, A2780S); or from Kyoto University, Kyoto, Japan ([…], Tyknu, and TyknuC is R) or were kind gifts from Dr. Patricia Kruk, Department of Pathology, College of Medicine, University of South Florida, Tampa, Fla., and Susan Murphy, PhD, Dept of OBGYN/Division of GYN Oncology, Duke University, Durham, N.C. […] Cell lines were maintained in RPMI-1640 (Invitrogen, Carlsbad, Calif.) supplemented with 10% fetal bovine serum (Fisher Scientific, Pittsburgh, Pa.), 1% sodium pyruvate, 1% penicillin/streptomycin (Cellgro, Manassas, Va.), and 1% nonessential amino acids (HyClone, Hudson, N.H.). Mycoplasma testing was performed every 6 months following manufacturer's protocol (Lonza, Rockland, Me.). Drug activity was evaluated using a high-throughput CellTiter-Blue cell viability assay. […] After cell adherence, increasing concentrations of cisplatin, carboplatin (Sigma-Aldrich, St. Louis, Mo.), paclitaxel (Sequoia Research Products Ltd., Pangbourne, UK), or carboplatin plus paclitaxel (carbotaxol: constant molar ratio of carboplatin to paclitaxel of 20,000:1) were added to appropriate wells using an automated pipetting station. Four replicate wells were used for each drug concentration and vehicle controls. […] The cells were incubated with the drug for 72 hours, and 5 μL of CellTiter-Blue reagent (Promega Corp) was added to each well. Fluorescence was read at […] using a Synergy 4 microplate reader (Bio-Tek Instruments, Inc., Winooski, Vt.)."}, "A2780CP": {"test_system": "A2780CP", "details": "A2780CP ovarian cancer cell line; 72 hours; 50% reduction in growth/viability", "source_text": "as §1"}, "A2780S": {"test_system": "A2780S", "details": "A2780S ovarian cancer cell line; 72 hours; 50% reduction in growth/viability", "source_text": "as §1"}, "BG1": {"test_system": "BG1", "details": "BG1 ovarian cancer cell line; 72 hours; 50% reduction in growth/viability", "source_text": "as §1"}, "C13": {"test_system": "C13", "details": "C13 ovarian cancer cell line; 72 hours; 50% reduction in growth/viability", "source_text": "as §1"}, "CAOV2": {"test_system": "CAOV2", "details": "CAOV2 ovarian cancer cell line; 72 hours; 50% reduction in growth/viability", "source_text": "as §1"}, "CAOV3": {"test_system": "CAOV3", "details": "CAOV3 ovarian cancer cell line; 72 hours; 50% reduction in growth/viability", "source_text": "as §1"}, "CHIcisR": {"test_system": "CHIcisR", "details": "CHIcisR ovarian cancer cell line; 72 hours; 50% reduction in growth/viability", "source_text": "as §1"}, "CHI": {"test_system": "CHI", "details": "CHI ovarian cancer cell line; 72 hours; 50% reduction in growth/viability", "source_text": "as §1"}, "Dov13": {"test_system": "Dov13", "details": "Dov13 ovarian cancer cell line; 72 hours; 50% reduction in growth/viability", "source_text": "as §1"}, "HeyA8": {"test_system": "HeyA8", "details": "HeyA8 ovarian cancer cell line; 72 hours; 50% reduction in growth/viability", "source_text": "as §1"}, "IGR-OV1": {"test_system": "IGR-OV1", "details": "IGR-OV1 ovarian cancer cell line; 72 hours; 50% reduction in growth/viability", "source_text": "as §1"}, "IMCC3": {"test_system": "IMCC3", "details": "IMCC3 ovarian cancer cell line; 72 hours; 50% reduction in growth/viability", "source_text": "as §1"}, "IMCC5": {"test_system": "IMCC5", "details": "IMCC5 ovarian cancer cell line; 72 hours; 50% reduction in growth/viability", "source_text": "as §1"}, "M41CSR": {"test_system": "M41CSR", "details": "M41CSR ovarian cancer cell line; 72 hours; 50% reduction in growth/viability", "source_text": "as §1"}, "M41": {"test_system": "M41", "details": "M41 ovarian cancer cell line; 72 hours; 50% reduction in growth/viability", "source_text": "as §1"}, "MCAS": {"test_system": "MCAS", "details": "MCAS ovarian cancer cell line; 72 hours; 50% reduction in growth/viability", "source_text": "as §1"}, "OV2008": {"test_system": "OV2008", "details": "OV2008 ovarian cancer cell line; 72 hours; 50% reduction in growth/viability", "source_text": "as §1"}, "OVCA420": {"test_system": "OVCA420", "details": "OVCA420 ovarian cancer cell line; 72 hours; 50% reduction in growth/viability", "source_text": "as §1"}, "OVCA429": {"test_system": "OVCA429", "details": "OVCA429 ovarian cancer cell line; 72 hours; 50% reduction in growth/viability", "source_text": "as §1"}, "OVCA432": {"test_system": "OVCA432", "details": "OVCA432 ovarian cancer cell line; 72 hours; 50% reduction in growth/viability", "source_text": "as §1"}, "OVCA433": {"test_system": "OVCA433", "details": "OVCA433 ovarian cancer cell line; 72 hours; 50% reduction in growth/viability", "source_text": "as §1"}, "OVCAR10": {"test_system": "OVCAR10", "details": "OVCAR10 ovarian cancer cell line; 72 hours; 50% reduction in growth/viability", "source_text": "as §1"}, "OVCAR2": {"test_system": "OVCAR2", "details": "OVCAR2 ovarian cancer cell line; 72 hours; 50% reduction in growth/viability", "source_text": "as §1"}, "OVCAR3": {"test_system": "OVCAR3", "details": "OVCAR3 ovarian cancer cell line; 72 hours; 50% reduction in growth/viability", "source_text": "as §1"}, "OVCAR4": {"test_system": "OVCAR4", "details": "OVCAR4 ovarian cancer cell line; 72 hours; 50% reduction in growth/viability", "source_text": "as §1"}, "OVCAR5": {"test_system": "OVCAR5", "details": "OVCAR5 ovarian cancer cell line; 72 hours; 50% reduction in growth/viability", "source_text": "as §1"}, "OVCAR8": {"test_system": "OVCAR8", "details": "OVCAR8 ovarian cancer cell line; 72 hours; 50% reduction in growth/viability", "source_text": "as §1"}, "Ovary1847": {"test_system": "Ovary1847", "details": "Ovary1847 ovarian cancer cell line; 72 hours; 50% reduction in growth/viability", "source_text": "as §1"}, "SK-OV-4": {"test_system": "SK-OV-4", "details": "SK-OV-4 ovarian cancer cell line; 72 hours; 50% reduction in growth/viability", "source_text": "as §1"}, "TyknuCisR": {"test_system": "TyknuCisR", "details": "TyknuCisR ovarian cancer cell line; 72 hours; 50% reduction in growth/viability", "source_text": "as §1"}, "Tyknu": {"test_system": "Tyknu", "details": "Tyknu ovarian cancer cell line; 72 hours; 50% reduction in growth/viability", "source_text": "as §1"}}}
{"smiles": "N.N.[Cl][Pt][Cl]", "note": "[Cisplatin, cisplatin]", "values": [{"measurement": "IC50", "setting": "A2008", "value": 1.5, "unit": "µM"}, {"measurement": "IC50", "setting": "A2780CP", "value": 43.8, "unit": "µM"}, {"measurement": "IC50", "setting": "A2780S", "value": 4.7, "unit": "µM"}, {"measurement": "IC50", "setting": "BG1", "value": 36.4, "unit": "µM"}, {"measurement": "IC50", "setting": "C13", "value": 17.9, "unit": "µM"}, {"measurement": "IC50", "setting": "CAOV2", "value": 4.5, "unit": "µM"}, {"measurement": "IC50", "setting": "CAOV3", "value": 34.4, "unit": "µM"}, {"measurement": "IC50", "setting": "CHIcisR", "value": 1.3, "unit": "µM"}, {"measurement": "IC50", "setting": "CHI", "value": 4.9, "unit": "µM"}, {"measurement": "IC50", "setting": "Dov13", "value": 24.6, "unit": "µM"}, {"measurement": "IC50", "setting": "HeyA8", "value": 33.1, "unit": "µM"}, {"measurement": "IC50", "setting": "IGR-OV1", "value": 1.4, "unit": "µM"}, {"measurement": "IC50", "setting": "IMCC3", "value": 22, "unit": "µM"}, {"measurement": "IC50", "setting": "IMCC5", "value": 4.9, "unit": "µM"}, {"measurement": "IC50", "setting": "M41CSR", "value": 13.5, "unit": "µM"}, {"measurement": "IC50", "setting": "M41", "value": 12.8, "unit": "µM"}, {"measurement": "IC50", "setting": "MCAS", "value": 61.3, "unit": "µM"}, {"measurement": "IC50", "setting": "OV2008", "value": 3.5, "unit": "µM"}, {"measurement": "IC50", "setting": "OVCA420", "value": 13.7, "unit": "µM"}, {"measurement": "IC50", "setting": "OVCA429", "value": 5.8, "unit": "µM"}, {"measurement": "IC50", "setting": "OVCA432", "value": 1.4, "unit": "µM"}, {"measurement": "IC50", "setting": "OVCA433", "value": 8.8, "unit": "µM"}, {"measurement": "IC50", "setting": "OVCAR10", "value": 32.5, "unit": "µM"}, {"measurement": "IC50", "setting": "OVCAR2", "value": 3.7, "unit": "µM"}, {"measurement": "IC50", "setting": "OVCAR3", "value": 1.3, "unit": "µM"}, {"measurement": "IC50", "setting": "OVCAR4", "value": 20.5, "unit": "µM"}, {"measurement": "IC50", "setting": "OVCAR5", "value": 12.9, "unit": "µM"}, {"measurement": "IC50", "setting": "OVCAR8", "value": 75.3, "unit": "µM"}, {"measurement": "IC50", "setting": "Ovary1847", "value": 8.7, "unit": "µM"}, {"measurement": "IC50", "setting": "SK-OV-4", "value": 13, "unit": "µM"}, {"measurement": "IC50", "setting": "TyknuCisR", "value": 17.7, "unit": "µM"}, {"measurement": "IC50", "setting": "Tyknu", "value": 4.8, "unit": "µM"}]}
